Data published in patent publication US11497212B2, “Substituted thiophenyl uracils, salts thereof and the use thereof as herbicidal agents” (Syngenta Crop Protection AG, priority 2017, dated 2022).

Key:
Format in all cases: in vivo
[1] = system: Zea mays; test: Crop compatibility post-emergence (greenhouse pot trial)
How it was run: (§1)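 Visual % damage vs untreated controls, ~3 wk post-spray (100% = plants died, 0% = as control). Plants in sandy loam, greenhouse, sprayed at one-leaf stage (2–3 wk after sowing); WP/EC in water + 0.5% additive, 600 L/ha.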

[2] = system: Triticum aestivum; test: as above
How it was run: as §1

[3] = system: Oryza sativa; test: as above
How it was run: as §1

[4] = system: Glycine max; test: as above
How it was run: as §1

[5] = system: Hordeum murinum; test: Herbicidal action post-emergence (greenhouse pot trial); conditions: application rate 80 g/ha, scored visually after about 3 weeks vs untreated controls
How it was run: (§2)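 Foliar application post-emergence; water volume 600 L/ha, additive 0.5%, dose ≤80 g/ha. Scoring: visual, ~3 wk, relative to untreated (0–100%).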

[6] = system: Veronica persica; test: as above; conditions: application rate 80 g/ha
How it was run: as §2

[7] = system: Avena fatua; test: as above; conditions: application rate 80 g/ha, scored visually after about 3 weeks vs untreated controls
How it was run: as §2

[8] = system: Amaranthus retroflexus; test: as above; conditions: application rate 80 g/ha, scored visually after about 3 weeks vs untreated controls
How it was run: as §2

[9] = system: Viola tricolor; test: as above; conditions: application rate 80 g/ha
How it was run: as §2

[10] = system: Matricaria inodora; test: as above; conditions: application rate 80 g/ha, scored visually after about 3 weeks vs untreated controls
How it was run: as §2

[11] = system: Pharbitis purpurea; test: as above; conditions: application rate 80 g/ha
How it was run: as §2

[12] = system: Setaria viridis; test: as above; conditions: application rate 80 g/ha, scored visually after about 3 weeks vs untreated controls
How it was run: as §2

[13] = system: Polygonum convolvulus; test: as above; conditions: application rate 80 g/ha, scored visually after about 3 weeks vs untreated controls
How it was run: as §2

[14] = system: Lolium rigidum; test: as above; conditions: application rate 80 g/ha, scored visually after about 3 weeks vs untreated controls
How it was run: as §2

[15] = system: Stellaria media; test: as above; conditions: application rate 80 g/ha, scored visually after about 3 weeks vs untreated controls
How it was run: as §2

[16] = system: Abutilon theophrasti; test: as above; conditions: application rate 80 g/ha, scored visually after about 3 weeks vs untreated controls
How it was run: as §2

[17] = system: Echinochloa crus-galli; test: as above; conditions: application rate 80 g/ha, scored visually after about 3 weeks vs untreated controls
How it was run: as §2

[18] = system: Alopecurus myosuroides; test: as above; conditions: application rate 80 g/ha, scored visually after about 3 weeks vs untreated controls
How it was run: as §2

[19] = system: Zea mays; test: Crop compatibility pre-emergence (greenhouse pot trial); conditions: application rate 80 g/ha, effect vs untreated controls
How it was run: (§3)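 After soil-surface application of each compound to freshly sown pots (aqueous spray, 600 L/ha, 0.5% additive), plants grew under greenhouse conditions. Around 3 weeks later, injury was estimated visually on a 0–100% scale against controls.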

[20] = system: Hordeum murinum; test: Herbicidal action pre-emergence (greenhouse pot trial); conditions: application rate 320 g/ha
How it was run: (§4)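 In this test the compounds, as suspensions or emulsions in water plus 0.5% additive, are sprayed onto the soil layer covering seeds at 320 g/ha or lower. Scoring happens visually after about three weeks under good greenhouse growth conditions.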

[21] = system: Veronica persica; test: as above; conditions: application rate 320 g/ha
How it was run: as §4

[22] = system: Avena fatua; test: as above; conditions: application rate 320 g/ha
How it was run: as §4

[23] = system: Amaranthus retroflexus; test: as above; conditions: application rate 320 g/ha, scored after about 3 weeks
How it was run: as §4

[24] = system: Viola tricolor; test: as above; conditions: application rate 320 g/ha, scored after about 3 weeks
How it was run: as §4

[25] = system: Matricaria inodora; test: as above; conditions: application rate 320 g/ha, scored after about 3 weeks
How it was run: as §4

[26] = system: Pharbitis purpurea; test: as above; conditions: application rate 320 g/ha
How it was run: as §4

[27] = system: Setaria viridis; test: as above; conditions: application rate 320 g/ha, scored after about 3 weeks
How it was run: as §4

[28] = system: Lolium rigidum; test: as above; conditions: application rate 320 g/ha
How it was run: as §4

[29] = system: Stellaria media; test: as above; conditions: application rate 320 g/ha, scored after about 3 weeks
How it was run: as §4

[30] = system: Abutilon theophrasti; test: as above; conditions: application rate 320 g/ha, scored after about 3 weeks
How it was run: as §4

[31] = system: Echinochloa crus-galli; test: as above; conditions: application rate 320 g/ha, scored after about 3 weeks
How it was run: as §4

[32] = system: Alopecurus myosuroides; test: as above; conditions: application rate 320 g/ha, scored after about 3 weeks
How it was run: as §4

[33] = system: Glycine max; test: Crop compatibility pre-emergence (greenhouse pot trial); conditions: effect vs untreated controls
How it was run: as §3

[34] = system: Cyperus esculentus; test: Herbicidal action pre-emergence (greenhouse pot trial); conditions: application rate 320 g/ha
How it was run: as §4

[35] = system: Digitaria sanguinalis; test: Herbicidal action post-emergence (greenhouse pot trial); conditions: application rate 80 g/ha
How it was run: as §2

[36] = system: Digitaria sanguinalis; test: Herbicidal action pre-emergence (greenhouse pot trial); conditions: application rate 80 g/ha
How it was run: as §4

CON(C(=O)C(C)Sc1cc(-n2c(=O)cc(C(F)(F)F)n(C)c2=O)c(F)cc1Cl)C1CCOC1 (centres unmarked) [I.1-341]
90%: Hordeum murinum (Efficacy in %) [5] | Avena fatua (Efficacy in %) [7] | Alopecurus myosuroides (Efficacy in %) [18] | Avena fatua (Efficacy in %) [22] | Alopecurus myosuroides (Efficacy in %) [32]
80%: Hordeum murinum (Efficacy in %) [20]
10%: Zea mays (Efficacy in %) ([1]; application rate 20 g/ha) | Triticum aestivum (Efficacy in %) ([2]; application rate 20 g/ha) | Oryza sativa (Efficacy in %) ([3]; application rate 5 g/ha) | Glycine max (Efficacy in %) ([4]; application rate 25 g/ha)
0%: Zea mays (Efficacy in %) [19]
100%: Veronica persica (Efficacy in %) [6] | Amaranthus retroflexus (Efficacy in %) [8] | Viola tricolor (Efficacy in %) [9] | Matricaria inodora (Efficacy in %) [10] | Pharbitis purpurea (Efficacy in %) [11] | Setaria viridis (Efficacy in %) [12] | Polygonum convolvulus (Efficacy in %) [13] | Lolium rigidum (Efficacy in %) [14] | Stellaria media (Efficacy in %) [15] | Abutilon theophrasti (Efficacy in %) [16] | Echinochloa crus-galli (Efficacy in %) [17] | Veronica persica (Efficacy in %) [21] | Amaranthus retroflexus (Efficacy in %) [23] | Viola tricolor (Efficacy in %) [24] | Matricaria inodora (Efficacy in %) [25] | Pharbitis purpurea (Efficacy in %) [26] | Setaria viridis (Efficacy in %) [27] | Lolium rigidum (Efficacy in %) [28] | Stellaria media (Efficacy in %) [29] | Abutilon theophrasti (Efficacy in %) [30] | Echinochloa crus-galli (Efficacy in %) [31]

CC(Sc1cc(-n2c(=O)cc(C(F)(F)F)n(C)c2=O)c(F)cc1Cl)C(=O)NCC1CS(=O)(=O)CCO1 (centres unmarked) [I.1-333]
100%: Amaranthus retroflexus (Efficacy in %) [8] | Viola tricolor (Efficacy in %) [9] | Matricaria inodora (Efficacy in %) [10] | Polygonum convolvulus (Efficacy in %) [13] | Abutilon theophrasti (Efficacy in %) [16] | Hordeum murinum (Efficacy in %) [20] | Veronica persica (Efficacy in %) [21] | Avena fatua (Efficacy in %) [22] | Amaranthus retroflexus (Efficacy in %) [23] | Viola tricolor (Efficacy in %) [24] | Matricaria inodora (Efficacy in %) [25] | Pharbitis purpurea (Efficacy in %) [26] | Lolium rigidum (Efficacy in %) [28] | Stellaria media (Efficacy in %) [29] | Abutilon theophrasti (Efficacy in %) [30] | Echinochloa crus-galli (Efficacy in %) [31] | Alopecurus myosuroides (Efficacy in %) [32]
20%: Glycine max (Efficacy in %) ([4]; application rate 20 g/ha) | Zea mays (Efficacy in %) [19]
10%: Triticum aestivum (Efficacy in %) ([2]; application rate 20 g/ha)
80%: Veronica persica (Efficacy in %) [6] | Pharbitis purpurea (Efficacy in %) [11] | Cyperus esculentus (Efficacy in %) [34]
90%: Setaria viridis (Efficacy in %) [27]
0%: Zea mays (Efficacy in %) ([1]; application rate 80 g/ha) | Oryza sativa (Efficacy in %) ([3]; application rate 80 g/ha) | Glycine max (Efficacy in %) ([33]; application rate 80 g/ha)

CCC(Sc1cc(-n2c(=O)cc(C(F)(F)F)n(C)c2=O)c(F)cc1Cl)C(=O)OCC1CCOC1 (centres unmarked) [I.2-72, Tetrahydrofuran-3-ylmethyl 2-({2-chloro-4-fluoro-5-[3-methyl-2,6-dioxo-4-(trifluoromethyl)-3,6-dihydropyrimidin-1(2H)-yl]phenyl}sulfanyl)butanoate]
100%: Veronica persica (Efficacy in %) [6] | Amaranthus retroflexus (Efficacy in %) [8] | Viola tricolor (Efficacy in %) [9] | Matricaria inodora (Efficacy in %) [10] | Pharbitis purpurea (Efficacy in %) [11] | Setaria viridis (Efficacy in %) [12] | Polygonum convolvulus (Efficacy in %) [13] | Stellaria media (Efficacy in %) [15] | Abutilon theophrasti (Efficacy in %) [16] | Echinochloa crus-galli (Efficacy in %) [17] | Digitaria sanguinalis (Efficacy in %) [35] | Veronica persica (Efficacy in %) [21] | Amaranthus retroflexus (Efficacy in %) [23] | Viola tricolor (Efficacy in %) [24] | Matricaria inodora (Efficacy in %) [25] | Pharbitis purpurea (Efficacy in %) [26] | Setaria viridis (Efficacy in %) [27] | Stellaria media (Efficacy in %) [29] | Abutilon theophrasti (Efficacy in %) [30] | Echinochloa crus-galli (Efficacy in %) [31] | Alopecurus myosuroides (Efficacy in %) [32] | Digitaria sanguinalis (Efficacy in %) [36]
90%: Alopecurus myosuroides (Efficacy in %) [18] | Hordeum murinum (Efficacy in %) [20] | Lolium rigidum (Efficacy in %) [28]
20%: Triticum aestivum (Efficacy in %) ([2]; application rate 80 g/ha) | Oryza sativa (Efficacy in %) ([3]; application rate 5 g/ha) | Glycine max (Efficacy in %) ([33]; application rate 20 g/ha)
80%: Hordeum murinum (Efficacy in %) [5] | Avena fatua (Efficacy in %) [7] | Lolium rigidum (Efficacy in %) [14] | Avena fatua (Efficacy in %) [22]
10%: Zea mays (Efficacy in %) [19]
